# Laboratory results taken from paper PMC10281575, “PfCRT mutations conferring piperaquine resistance in falciparum malaria shape the kinetics of quinoline drug binding and transport” (PLOS Pathogens, 2023).
# Values joined by “and” are separate entries in the source; they are usually repeats but may differ in a detail not shown here. Equal values may be shown once.
# Target: T1, PfCRT^Dd2_F145I (Plasmodium falciparum, UniProt Q8IBZ9, A220S/F145I/I356T/K76T/M74I/N326S/N75E/Q271E/R371I)
# T1 construct: expressed in transfected cells; host or cells: Xenopus laevis oocytes injected with in vitro transcribed RNA (pSP64T)
# T1 sequence (Q8IBZ9 1-424 M74I/N75E/K76T/F145I/A220S/Q271E/N326S/I356T/R371I): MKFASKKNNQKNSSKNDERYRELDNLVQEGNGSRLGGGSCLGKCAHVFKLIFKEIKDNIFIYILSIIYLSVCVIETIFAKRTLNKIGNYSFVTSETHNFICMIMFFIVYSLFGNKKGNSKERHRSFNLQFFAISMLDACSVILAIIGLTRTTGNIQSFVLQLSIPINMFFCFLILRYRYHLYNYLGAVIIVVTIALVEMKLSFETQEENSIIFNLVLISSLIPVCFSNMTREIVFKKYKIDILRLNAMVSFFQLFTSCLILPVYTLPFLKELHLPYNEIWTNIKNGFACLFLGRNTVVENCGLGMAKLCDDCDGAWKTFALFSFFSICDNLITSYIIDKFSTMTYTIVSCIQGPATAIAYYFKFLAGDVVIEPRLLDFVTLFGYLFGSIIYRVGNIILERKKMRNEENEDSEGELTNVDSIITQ
# Assay: Radiolabeled drug uptake in X. laevis oocytes expressing PfCRT^Dd2_F145I
# Assay type: cell-based
# Description: The two kinetic parameters were derived by fitting the Michaelis-Menten equation to the kinetic data (Table 1).
# A codon-optimized coding sequence of the Dd2 isoform of PfCRT (PfCRT^Dd2) was subcloned into the pSP64T expression vector [21]. To generate the necessary mutations to introduce the amino acid substitutions H97Y, F145I, M343L or G353V into the pfcrt sequence, the overlap extension method was used. A region from the 5’-untranslated Xenopus β-globin sequence to the respective 3’ region, containing the full length pfcrt coding sequence, was amplified using the following primer pairs: for the H97Y mutation, numbers 1/4 and 2/3; for the F145I mutation, numbers 1/6 and 2/5; for the M343L mutation, numbers 1/8 and 2/7; and for the G353V mutation, numbers 1/10 and 2/9 (for primers, see S2 Table). Both PCR products were used as template for amplification of the final product using primers number 1/2. The resulting fragment was cloned into the pSP64T expression vector, and the presence of the desired mutation was confirmed by sequencing.
# Adult female X. laevis frogs (purchased from NASCO) were anesthetized by submersion in a solution of 0.3% (w/v) 3-amino benzoate methanesulfonate for 15 min. Sections of the ovary were surgically removed and placed in Ca^2+-free ND96 buffer supplemented with 0.1% collagenase D (w/v; Roche), 0.5% BSA (w/v) and 9 mM Na2HPO4 at 18°C for 14–16 h while gently shaking. The oocytes were then washed several times with ND96 buffer (5 mM HEPES, pH 7.5, 96 mM NaCl, 2 mM KCl, 1.8 mM CaCl2, 1 mM MgCl2), supplemented with […] gentamycin. Healthy-looking stage V-VI oocytes were manually selected and randomly grouped for injection. A codon-optimized coding sequence of PfCRT was subcloned into the pSP64T expression vector and subsequently linearized using the restriction endonuclease BamHI or SalI (New England Biolabs GmbH). RNA for injection was transcribed in vitro using the mMESSAGE mMACHINE SP6 Transcription kit (Ambion), diluted with nuclease-free water to a final concentration of 0.6 μg/μL and stored at -80°C. RNA was injected using precision-bore glass capillary tubes (3.5-inch glass capillaries; Drummond Scientific Co.), which were pulled on a vertical puller (P-87 Flaming/Brown micropipette puller, Sutter Instrument Co.) and graduated. The micropipettes were connected to a microinjector (Nanoject II Auto-Nanoliter Injector, Drummond Scientific Co.). Injection was conducted under stereomicroscopic control. 50 nL of nuclease-free water alone (control oocytes) or 50 nL of nuclease-free water containing 30 ng of RNA was injected per oocyte. Injected oocytes were kept for 72 h at 18°C in ND96 buffer with two daily buffer changes before being used for further experiments.
# Drug transport assays were performed as previously described. Briefly, measurements of radiolabeled drug uptake were made over 1 h, unless otherwise specified. […] Where specified, one or more unlabeled drugs were also present at the indicated concentrations. […] The uptake assays were terminated by removing the oocytes from the reaction medium and washing them three times with 2 mL of ice-cold ND96 buffer. Each oocyte was transferred to a separate scintillation vial and lysed by the addition of 200 μL of a 5% SDS solution. The radioactivity in the sample was measured using a liquid scintillation analyser Tri-Carb 4910 TR (PerkinElmer). Water-injected oocytes were analyzed in parallel as a negative control. The buffer from each condition was measured in duplicate in parallel to each experiment to transform counts per minute into pmol of drug. Drug uptake attributable to PfCRT was determined by subtracting the background uptake from water-injected oocytes from that of PfCRT-expressing oocytes.
# [1] = 50 μM PPQ, pH 6.0, total uptake, one value per biological replicate
# [2] = 50 μM PPQ, pH 6.0, water-injected uptake subtracted, per replicate
# [3] = 60 min, pH 6, per biological replicate
structure (smiles),measurement,setting,value
"Clc1ccc2c(N3CCN(CCCN4CCN(c5ccnc6cc(Cl)ccc56)CC4)CC3)ccnc2c1 [PPQ, piperaquine]",PfCRTDd2_F145I-mediated PPQ uptake at 10 µM PPQ,"10 µM PPQ, single replicates",11.21 pmol oocyte-1 h-1 and 11.88 pmol oocyte-1 h-1 and 9.04 pmol oocyte-1 h-1
same,PfCRTDd2_F145I PPQ uptake at 10 min,[1],41.61 pmol oocyte-1 and 17.68 pmol oocyte-1 and 66.82 pmol oocyte-1 and 63.70 pmol oocyte-1 and 39.93 pmol oocyte-1
same,PfCRTDd2_F145I PPQ uptake at 30 min,[1],65.21 pmol oocyte-1 and 116.16 pmol oocyte-1 and 126.02 pmol oocyte-1
same,PfCRTDd2_F145I PPQ uptake at 60 min,[1],236.23 pmol oocyte-1 and 329.69 pmol oocyte-1 and 256.17 pmol oocyte-1 and 126.53 pmol oocyte-1 and 203.02 pmol oocyte-1 and 85.96 pmol oocyte-1 and 54.49 pmol oocyte-1 and 109.72 pmol oocyte-1 and 205.44 pmol oocyte-1 and 121.75 pmol oocyte-1 and 41.63 pmol oocyte-1
same,PfCRTDd2_F145I PPQ uptake at 90 min,[1],231.09 pmol oocyte-1 and 187.07 pmol oocyte-1 and 164.98 pmol oocyte-1 and 158.85 pmol oocyte-1
same,PfCRTDd2_F145I PPQ uptake at 120 min,[1],355.30 pmol oocyte-1 and 204.11 pmol oocyte-1 and 281.88 pmol oocyte-1 and 284.17 pmol oocyte-1 and 64.48 pmol oocyte-1 and 488.71 pmol oocyte-1
same,PfCRTDd2_F145I PPQ uptake at 180 min,[1],182.19 pmol oocyte-1 and 278.77 pmol oocyte-1 and 329.69 pmol oocyte-1 and 378.75 pmol oocyte-1
same,PfCRTDd2_F145I-mediated PPQ uptake at 10 min,[2],21.57 pmol oocyte-1 and 6.53 pmol oocyte-1 and 19.62 pmol oocyte-1 and 21.70 pmol oocyte-1 and 15.89 pmol oocyte-1
same,PfCRTDd2_F145I-mediated PPQ uptake at 30 min,[2],25.28 pmol oocyte-1 and 34.52 pmol oocyte-1 and 15.41 pmol oocyte-1
same,PfCRTDd2_F145I-mediated PPQ uptake at 60 min,[2],39.58 pmol oocyte-1 and 153.01 pmol oocyte-1 and 36.72 pmol oocyte-1 and 18.65 pmol oocyte-1 and 19.44 pmol oocyte-1 and 16.68 pmol oocyte-1 and 27.82 pmol oocyte-1 and 75.44 pmol oocyte-1 and 27.59 pmol oocyte-1 and 15.54 pmol oocyte-1 and 75.68 pmol oocyte-1
same,PfCRTDd2_F145I-mediated PPQ uptake at 90 min,[2],89.48 pmol oocyte-1 and 78.18 pmol oocyte-1 and 49.49 pmol oocyte-1 and 48.14 pmol oocyte-1
same,PfCRTDd2_F145I-mediated PPQ uptake at 120 min,[2],115.65 pmol oocyte-1 and 103.98 pmol oocyte-1 and 53.31 pmol oocyte-1 and 32.06 pmol oocyte-1 and 52.11 pmol oocyte-1 and 114.20 pmol oocyte-1
same,PfCRTDd2_F145I-mediated PPQ uptake at 180 min,[2],46.86 pmol oocyte-1 and 115.74 pmol oocyte-1 and 109.59 pmol oocyte-1 and 113.43 pmol oocyte-1
same,PfCRTDd2_F145I-mediated PPQ uptake at 50 µM PPQ,"50 µM PPQ, single replicates",27.82 pmol oocyte-1 h-1 and 75.44 pmol oocyte-1 h-1 and 27.59 pmol oocyte-1 h-1 and 75.68 pmol oocyte-1 h-1 and 39.58 pmol oocyte-1 h-1 and 36.72 pmol oocyte-1 h-1 and 42.92 pmol oocyte-1 h-1
same,PfCRTDd2_F145I-mediated PPQ uptake at 100 µM PPQ,"100 µM PPQ, single replicates",60.49 pmol oocyte-1 h-1 and 74.22 pmol oocyte-1 h-1 and 87.33 pmol oocyte-1 h-1 and 56.31 pmol oocyte-1 h-1
same,PfCRTDd2_F145I-mediated PPQ uptake at 200 µM PPQ,"200 µM PPQ, single replicates",98.82 pmol oocyte-1 h-1 and 131.61 pmol oocyte-1 h-1 and 62.02 pmol oocyte-1 h-1 and 88.46 pmol oocyte-1 h-1
same,PfCRTDd2_F145I-mediated PPQ uptake at 300 µM PPQ,"300 µM PPQ, single replicates",115.45 pmol oocyte-1 h-1 and 117.23 pmol oocyte-1 h-1 and 91.14 pmol oocyte-1 h-1
same,PfCRTDd2_F145I-mediated PPQ uptake at 400 µM PPQ,"400 µM PPQ, single replicates",130.32 pmol oocyte-1 h-1 and 101.99 pmol oocyte-1 h-1 and 105.11 pmol oocyte-1 h-1
same,PfCRTDd2_F145I-mediated PPQ uptake at 500 µM PPQ,"500 µM PPQ, single replicates",124.15 pmol oocyte-1 h-1 and 149.83 pmol oocyte-1 h-1 and 96.18 pmol oocyte-1 h-1
same,PfCRTDd2_F145I-mediated PPQ uptake at 10 µM PPQ,[3],11.21 pmol oocyte-1 h-1 and 11.88 pmol oocyte-1 h-1 and 9.04 pmol oocyte-1 h-1
same,PfCRTDd2_F145I-mediated PPQ uptake at 50 µM PPQ,[3],39.58 pmol oocyte-1 h-1 and 36.72 pmol oocyte-1 h-1 and 42.92 pmol oocyte-1 h-1 and 27.82 pmol oocyte-1 h-1 and 75.44 pmol oocyte-1 h-1 and 27.59 pmol oocyte-1 h-1 and 75.68 pmol oocyte-1 h-1
same,PfCRTDd2_F145I-mediated PPQ uptake at 100 µM PPQ,[3],60.49 pmol oocyte-1 h-1 and 74.22 pmol oocyte-1 h-1 and 87.33 pmol oocyte-1 h-1 and 56.31 pmol oocyte-1 h-1
same,PfCRTDd2_F145I-mediated PPQ uptake at 200 µM PPQ,[3],98.82 pmol oocyte-1 h-1 and 131.61 pmol oocyte-1 h-1 and 62.02 pmol oocyte-1 h-1 and 88.46 pmol oocyte-1 h-1
same,PfCRTDd2_F145I-mediated PPQ uptake at 300 µM PPQ,[3],115.45 pmol oocyte-1 h-1 and 117.23 pmol oocyte-1 h-1 and 91.14 pmol oocyte-1 h-1
same,PfCRTDd2_F145I-mediated PPQ uptake at 400 µM PPQ,[3],130.32 pmol oocyte-1 h-1 and 101.99 pmol oocyte-1 h-1 and 105.11 pmol oocyte-1 h-1
same,PfCRTDd2_F145I-mediated PPQ uptake at 500 µM PPQ,[3],124.15 pmol oocyte-1 h-1 and 149.83 pmol oocyte-1 h-1 and 96.18 pmol oocyte-1 h-1
same,Km,"Michaelis-Menten fit, 10-500 μM drug, 60 min, pH 6, read-out: KM, Michaelis constant",115 ± 7 µM
same,increase of Vmax by the F145I substitution,versus PfCRT^Dd2,14%
